Experimental data from the supplement of paper PMC9663587.

Test system: SKBR3
Experiment: area over the GR curve, 72 h; higher = more effect;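 note: Dye Drop or Deep Dye Drop imaging of viable cells in 384-well plates (Hoechst nuclei, LIVE/DEAD dye), nine half-log doses, GR normalized to DMSO controls and time-zero plates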

| SMILES | area over the GR curve [GR] |
| --- | --- |
| CC[C@@H]1C(=O)N(C)c2cnc(Nc3ccc(C(=O)N[C@H]4CC[C@H](N5CCN(CC6CC6)CC5)CC4)cc3OC)nc2N1C(C)C [Volasertib/BI6727] (max 1 µM) | 0.694 |
| O=C(CCCCCCC(=O)Nc1ccccc1)NO [Vorinostat] (max 10 µM) | 0.345 |
| C=CC(=O)Nc1ccc(C(=O)Nc2[nH]nc3c2CN(C(=O)N[C@H](CN(C)C)c2ccccc2)C3(C)C)cc1 [YKL-5-124] (max 10 µM) | 0.965 |
| CN1CCN(C(=O)c2ccc3cc(CCNc4ncnc5ccc(C#N)cc45)ccc3c2)CC1 [senexin b] (max 10 µM) | 0.172 |

Test system: SUM185PE
Experiment: area over the GR curve, 72 h; higher = more effect;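 note: Dye Drop or Deep Dye Drop imaging of viable cells in 384-well plates (Hoechst nuclei, LIVE/DEAD dye), nine half-log doses, GR normalized to DMSO controls and time-zero plates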

| SMILES | area over the GR curve [GR] |
| --- | --- |
| CC[C@@H]1C(=O)N(C)c2cnc(Nc3ccc(C(=O)N[C@H]4CC[C@H](N5CCN(CC6CC6)CC5)CC4)cc3OC)nc2N1C(C)C [Volasertib/BI6727] (max 1 µM) | 0.286 |
| O=C(CCCCCCC(=O)Nc1ccccc1)NO [Vorinostat] (max 10 µM) | 0.0835 |
| C=CC(=O)Nc1ccc(C(=O)Nc2[nH]nc3c2CN(C(=O)N[C@H](CN(C)C)c2ccccc2)C3(C)C)cc1 [YKL-5-124] (max 10 µM) | 0.518 |
| CN1CCN(C(=O)c2ccc3cc(CCNc4ncnc5ccc(C#N)cc45)ccc3c2)CC1 [senexin b] (max 10 µM) | 0.293 |

Test system: BT20
Experiment: area over the GR curve, 72 h; higher = more effect;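 note: Dye Drop or Deep Dye Drop imaging of viable cells in 384-well plates (Hoechst nuclei, LIVE/DEAD dye), nine half-log doses, GR normalized to DMSO controls and time-zero plates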

| SMILES | area over the GR curve [GR] |
| --- | --- |
| CC[C@@H]1C(=O)N(C)c2cnc(Nc3ccc(C(=O)N[C@H]4CC[C@H](N5CCN(CC6CC6)CC5)CC4)cc3OC)nc2N1C(C)C [Volasertib/BI6727] (max 1 µM) | 0.79 |
| O=C(CCCCCCC(=O)Nc1ccccc1)NO [Vorinostat] (max 10 µM) | 0.151 |
| C=CC(=O)Nc1ccc(C(=O)Nc2[nH]nc3c2CN(C(=O)N[C@H](CN(C)C)c2ccccc2)C3(C)C)cc1 [YKL-5-124] (max 10 µM) | 0.693 |
| CN1CCN(C(=O)c2ccc3cc(CCNc4ncnc5ccc(C#N)cc45)ccc3c2)CC1 [senexin b] (max 10 µM) | 0.275 |

Test system: MDAMB361
Experiment: area over the GR curve, 72 h; higher = more effect;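 note: Dye Drop or Deep Dye Drop imaging of viable cells in 384-well plates (Hoechst nuclei, LIVE/DEAD dye), nine half-log doses, GR normalized to DMSO controls and time-zero plates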

| SMILES | area over the GR curve [GR] |
| --- | --- |
| CC[C@@H]1C(=O)N(C)c2cnc(Nc3ccc(C(=O)N[C@H]4CC[C@H](N5CCN(CC6CC6)CC5)CC4)cc3OC)nc2N1C(C)C [Volasertib/BI6727] (max 1 µM) | 0.793 |
| O=C(CCCCCCC(=O)Nc1ccccc1)NO [Vorinostat] (max 10 µM) | 0.457 |
| C=CC(=O)Nc1ccc(C(=O)Nc2[nH]nc3c2CN(C(=O)N[C@H](CN(C)C)c2ccccc2)C3(C)C)cc1 [YKL-5-124] (max 10 µM) | 1.14 |
| CN1CCN(C(=O)c2ccc3cc(CCNc4ncnc5ccc(C#N)cc45)ccc3c2)CC1 [senexin b] (max 10 µM) | 0.323 |

Test system: UACC893
Experiment: area over the GR curve, 72 h; higher = more effect

| SMILES | area over the GR curve [GR] |
| --- | --- |
| CC[C@@H]1C(=O)N(C)c2cnc(Nc3ccc(C(=O)N[C@H]4CC[C@H](N5CCN(CC6CC6)CC5)CC4)cc3OC)nc2N1C(C)C [Volasertib/BI6727] (max 1 µM) | 0.813 |
| O=C(CCCCCCC(=O)Nc1ccccc1)NO [Vorinostat] (max 10 µM) | 0.161 |
| C=CC(=O)Nc1ccc(C(=O)Nc2[nH]nc3c2CN(C(=O)N[C@H](CN(C)C)c2ccccc2)C3(C)C)cc1 [YKL-5-124] (max 10 µM) | 0.765 |
| CN1CCN(C(=O)c2ccc3cc(CCNc4ncnc5ccc(C#N)cc45)ccc3c2)CC1 [senexin b] (max 10 µM) | 0.185 |

Test system: ZR7530
Experiment: area over the GR curve, 72 h; higher = more effect

| SMILES | area over the GR curve [GR] |
| --- | --- |
| CC[C@@H]1C(=O)N(C)c2cnc(Nc3ccc(C(=O)N[C@H]4CC[C@H](N5CCN(CC6CC6)CC5)CC4)cc3OC)nc2N1C(C)C [Volasertib/BI6727] (max 1 µM) | 0.753 |
| O=C(CCCCCCC(=O)Nc1ccccc1)NO [Vorinostat] (max 10 µM) | 0.276 |
| C=CC(=O)Nc1ccc(C(=O)Nc2[nH]nc3c2CN(C(=O)N[C@H](CN(C)C)c2ccccc2)C3(C)C)cc1 [YKL-5-124] (max 10 µM) | 0.831 |
| CN1CCN(C(=O)c2ccc3cc(CCNc4ncnc5ccc(C#N)cc45)ccc3c2)CC1 [senexin b] (max 10 µM) | 0.274 |

Test system: AU565
Experiment: area over the GR curve, 72 h; higher = more effect

| SMILES | area over the GR curve [GR] |
| --- | --- |
| CC[C@@H]1C(=O)N(C)c2cnc(Nc3ccc(C(=O)N[C@H]4CC[C@H](N5CCN(CC6CC6)CC5)CC4)cc3OC)nc2N1C(C)C [Volasertib/BI6727] (max 1 µM) | 0.855 |
| O=C(CCCCCCC(=O)Nc1ccccc1)NO [Vorinostat] (max 10 µM) | 0.327 |
| C=CC(=O)Nc1ccc(C(=O)Nc2[nH]nc3c2CN(C(=O)N[C@H](CN(C)C)c2ccccc2)C3(C)C)cc1 [YKL-5-124] (max 10 µM) | 1 |
| CN1CCN(C(=O)c2ccc3cc(CCNc4ncnc5ccc(C#N)cc45)ccc3c2)CC1 [senexin b] (max 10 µM) | 0.111 |

Test system: SUM52PE
Experiment: area over the GR curve, 72 h; higher = more effect

| SMILES | area over the GR curve [GR] |
| --- | --- |
| CC[C@@H]1C(=O)N(C)c2cnc(Nc3ccc(C(=O)N[C@H]4CC[C@H](N5CCN(CC6CC6)CC5)CC4)cc3OC)nc2N1C(C)C [Volasertib/BI6727] (max 1 µM) | 0.488 |
| O=C(CCCCCCC(=O)Nc1ccccc1)NO [Vorinostat] (max 10 µM) | 0.0969 |
| C=CC(=O)Nc1ccc(C(=O)Nc2[nH]nc3c2CN(C(=O)N[C@H](CN(C)C)c2ccccc2)C3(C)C)cc1 [YKL-5-124] (max 10 µM) | 0.564 |
| CN1CCN(C(=O)c2ccc3cc(CCNc4ncnc5ccc(C#N)cc45)ccc3c2)CC1 [senexin b] (max 10 µM) | 0.141 |

Test system: HCC1419
Experiment: area over the GR curve, 72 h; higher = more effect

| SMILES | area over the GR curve [GR] |
| --- | --- |
| CC[C@@H]1C(=O)N(C)c2cnc(Nc3ccc(C(=O)N[C@H]4CC[C@H](N5CCN(CC6CC6)CC5)CC4)cc3OC)nc2N1C(C)C [Volasertib/BI6727] (max 1 µM) | 0.325 |
| O=C(CCCCCCC(=O)Nc1ccccc1)NO [Vorinostat] (max 10 µM) | 0.148 |
| C=CC(=O)Nc1ccc(C(=O)Nc2[nH]nc3c2CN(C(=O)N[C@H](CN(C)C)c2ccccc2)C3(C)C)cc1 [YKL-5-124] (max 10 µM) | 1.01 |
| CN1CCN(C(=O)c2ccc3cc(CCNc4ncnc5ccc(C#N)cc45)ccc3c2)CC1 [senexin b] (max 10 µM) | 0.13 |

Test system: MDAMB330
Experiment: area over the GR curve, 72 h; higher = more effect

| SMILES | area over the GR curve [GR] |
| --- | --- |
| CC[C@@H]1C(=O)N(C)c2cnc(Nc3ccc(C(=O)N[C@H]4CC[C@H](N5CCN(CC6CC6)CC5)CC4)cc3OC)nc2N1C(C)C [Volasertib/BI6727] (max 1 µM) | 0.778 |
| O=C(CCCCCCC(=O)Nc1ccccc1)NO [Vorinostat] (max 10 µM) | 0.271 |
| C=CC(=O)Nc1ccc(C(=O)Nc2[nH]nc3c2CN(C(=O)N[C@H](CN(C)C)c2ccccc2)C3(C)C)cc1 [YKL-5-124] (max 10 µM) | 0.925 |
| CN1CCN(C(=O)c2ccc3cc(CCNc4ncnc5ccc(C#N)cc45)ccc3c2)CC1 [senexin b] (max 10 µM) | 0.146 |

Test system: HCC1395
Experiment: area over the GR curve, 72 h; higher = more effect

| SMILES | area over the GR curve [GR] |
| --- | --- |
| CC[C@@H]1C(=O)N(C)c2cnc(Nc3ccc(C(=O)N[C@H]4CC[C@H](N5CCN(CC6CC6)CC5)CC4)cc3OC)nc2N1C(C)C [Volasertib/BI6727] (max 1 µM) | 0.759 |
| O=C(CCCCCCC(=O)Nc1ccccc1)NO [Vorinostat] (max 10 µM) | 0.099 |
| C=CC(=O)Nc1ccc(C(=O)Nc2[nH]nc3c2CN(C(=O)N[C@H](CN(C)C)c2ccccc2)C3(C)C)cc1 [YKL-5-124] (max 10 µM) | 0.874 |
| CN1CCN(C(=O)c2ccc3cc(CCNc4ncnc5ccc(C#N)cc45)ccc3c2)CC1 [senexin b] (max 10 µM) | 0.264 |

Test system: HCC202
Experiment: area over the GR curve, 72 h; higher = more effect

| SMILES | area over the GR curve [GR] |
| --- | --- |
| CC[C@@H]1C(=O)N(C)c2cnc(Nc3ccc(C(=O)N[C@H]4CC[C@H](N5CCN(CC6CC6)CC5)CC4)cc3OC)nc2N1C(C)C [Volasertib/BI6727] (max 1 µM) | 0.38 |
| O=C(CCCCCCC(=O)Nc1ccccc1)NO [Vorinostat] (max 10 µM) | 0.202 |
| C=CC(=O)Nc1ccc(C(=O)Nc2[nH]nc3c2CN(C(=O)N[C@H](CN(C)C)c2ccccc2)C3(C)C)cc1 [YKL-5-124] (max 10 µM) | 0.706 |
| CN1CCN(C(=O)c2ccc3cc(CCNc4ncnc5ccc(C#N)cc45)ccc3c2)CC1 [senexin b] (max 10 µM) | 0.182 |

Test system: HCC1937
Experiment: area over the GR curve, 72 h; higher = more effect

| SMILES | area over the GR curve [GR] |
| --- | --- |
| CC[C@@H]1C(=O)N(C)c2cnc(Nc3ccc(C(=O)N[C@H]4CC[C@H](N5CCN(CC6CC6)CC5)CC4)cc3OC)nc2N1C(C)C [Volasertib/BI6727] (max 1 µM) | 0.497 |
| O=C(CCCCCCC(=O)Nc1ccccc1)NO [Vorinostat] (max 10 µM) | 0.193 |
| C=CC(=O)Nc1ccc(C(=O)Nc2[nH]nc3c2CN(C(=O)N[C@H](CN(C)C)c2ccccc2)C3(C)C)cc1 [YKL-5-124] (max 10 µM) | 0.861 |
| CN1CCN(C(=O)c2ccc3cc(CCNc4ncnc5ccc(C#N)cc45)ccc3c2)CC1 [senexin b] (max 10 µM) | 0.286 |
